Patent US20120208873A1, “TEA POLYPHENOLS PRODUCTS FOR CEASING SMOKING AND TREATING AND/OR PREVENTING NICOTINE OR NICOTINE-DERIVED COMPOUNDS OR ESTROGEN INDUCED BREAST CANCER” (priority 2011, published 2012)

Tests used:
Format in all cases: cell-based, human
MCF-7 cells = experiment: Soft agar cloning assay (colony formation) of MCF-7 cells; settings: EGCG 10 μM, Nic 10 μM
Experimental: The base layer consisted of 0.9% low gelling point SeaPlaque agarose (Sigma, St. Louis, Mo., USA) in culture medium (Shih, Y. L., Liu, H. C., Chen, C. S., Hsu, C. H. et al., J. Agric. Food Chem. 2010, 58, 235-241). Soft agar, consisting of 0.4% SeaPlaque agarose in culture medium, was mixed with 1×10^4 MCF-7 cells and plated on top of the base layer in 60-mm diameter culture dishes. Soft agar cultures were maintained at 37° C. and counted for the appearance of colonies with a Leica DMI 4000B Microscope Imaging System (Leica Microsystems, Wetzlar, Germany).

p-AKT (Ser^473) = experiment: phosphorylated AKT by immunoblotting in MCF-7 cells; settings: EGCG 10 μM 24 h pretreatment, then Nic 10 μM or E2 10 nM 24 h
Experimental: To prepare protein samples, cells were washed once with ice-cold PBS and lysed on ice in cell lysis buffer (50 mM Tris-HCl, pH 8.0, 120 mM […], 0.5% Nonidet P-40, 100 mM sodium fluoride, and 200 μM sodium orthovanadate) containing protease inhibitors as described previously (Shih, Y. L., Liu, H. C., Chen, C. S., Hsu, C. H. et al., J. Agric. Food Chem. 2010, 58, 235-241). Protein (50 μg) from each sample was resolved by 12% SDS-polyacrylamide gel electrophoresis, transferred, and analyzed by Western blotting. Antibodies were purchased from the following vendors: anti-total AKT and protein A/G agarose beads were obtained from Santa Cruz Biotechnology (Santa Cruz, Calif., USA); anti-GAPDH and anti-α9-nAChR antibodies were from Abcam (Cambridge, UK); antiphospho AKT (Ser^473), anti-c-Jun, and anti-c-Fos were from Cell Signaling Technology (Beverly, Mass., USA). The secondary antibodies, alkaline phosphatase-coupled anti-mouse, and anti-rabbit IgG were purchased from Santa Cruz Biotechnology. The specific protein complexes were identified with the chromogenic substrates nitro blue tetrazolium, and 5-bromo-4-chloro-3-indolyl-phosphate from KPL (Gaithersburg, Md., USA). In each experiment, proteins were also probed with anti-GAPDH antibodies as a protein-loading control.

α9-nAChR mRNA = α9-nAChR mRNA by RT-PCR / real-time PCR in MCF-7 cells; settings: 24 h
Experimental: Total RNA was isolated from human cell lines using TRIzol (Invitrogen, Carlsbad, Calif., USA) according to the manufacturer's protocol. The α9-nAChR subunit-specific primers were synthesized by MB Mission BioTech (Taipei, Taiwan) as described in the previous reports (Chen, C. S., Lee, C. H., Hsieh, C. D., Ho, C. T. et al., Breast Cancer Res. Treat. 2010; Shih, Y. L., Liu, H. C., Chen, C. S., Hsu, C. H. et al., J. Agric. Food Chem. 2010, 58, 235-241). The PCR amplicons were analyzed on 1.2% agarose gels (Amresco, Solon, Ohio, USA) stained with ethidium bromide. The α9-nAChR mRNA intensity was measured and normalized to β-glucuronidase expression. Pictures of the bands were taken using an INFINITY-α digital imaging system (Vilber Lourmat, France), and band intensities were determined using PhotoCapt Version 11.01 software.

α9-nAChR promoter = α9-nAChR promoter luciferase activity assay in MCF-7 cells; settings: EGCG 10 μM 24 h pretreatment, then Nic or E2 24 h
Experimental: All α9-nAChR promoter—luciferase gene fusions were made in the pGL3-Basic vector (Promega, Madison, Wis., USA) by introducing the appropriate α9-nAChR promoter fragments into the polylinker upstream of the luciferase gene. These fragments were generated with restriction enzymes and cloned directly into pGL3-Basic or subcloned first in pBluescript and then transferred to pGL3-Basic. Deletion analysis of the most promoter-proximal region was performed by generating either appropriate restriction enzyme fragments or PCR fragments with suitable sense oligonucleotides and an antisense primer (5′-[…]-3′ (SEQ ID NO:1)) that anneals to the pGL3-Basic vector downstream of the site of transcription initiation.
MCF-7 cells were plated in 6-well plates. Cells were transiently cotransfected the next day with 1.5 μg of PGL3-Basic plasmid containing the full-length α9-nAChR promoter and 0.1 μg of the RLTK plasmid (Promega) using an MP-100 microporator (Digital Bio), according to the manufacturer's instructions. After incubation for 24 h, the medium was changed to culture medium containing 10% FBS or 0.1% FB S with or without Nic. Cells were lysed 24 h later with 1× Reporter Lysis Buffer (Promega) and stored frozen at −20° C. overnight. Luciferase activity was determined by testing 50 μL of the cell lysate and 50 μL of the Luciferase Assay Reagent (Promega) using a HIDEX Chameleon Microplate Reader. Relative luciferase units were normalized to renilla luciferase from the same cell lysates. Each luciferase assay experiment was performed three times.

AP-1 = experiment: ChIP assay of AP-1 binding to the α9-nAChR promoter in MCF-7 cells; settings: EGCG 10 μM 24 h pretreatment, Nic 10 μM
Experimental: Chromatin immunoprecipitation (ChIP) assays of cultured cells were performed as described previously (Chen, C. S., Lee, C. H., Hsieh, C. D., Ho, C. T. et al., Breast Cancer Res. Treat. 2010; Shih, Y. L., Liu, H. C., Chen, C. S., Hsu, C. H. et al., J. Agric. Food Chem. 2010, 58, 235-241). Briefly, after various regimens of Nic treatment, the cells were fixed with a final concentration of 1% formaldehyde directly added to the cell culture medium at 25° C. for 15 min. The crosslinking reaction was terminated with 0.125 M glycine for 5 min, and the cells were collected into a new Eppendorf tube. The cell lysate was sonicated three times with 10 s bursts to yield input DNA enriched for fragments around 1000 bp in size. A c-Jun (AP-1) antibody (Santa Cruz Biotechnology) was used for the immunoprecipitation reactions. Primers, which detect the a9-nAChR promoter regions, amplified a region from −960 to −1 for 32 cycles (forward: 5′-ATGCAATG CAAGCCTGAGCT-3′ (SEQ ID NO:2) and reverse: 5′-TATA-[…]-3′ (SEQ ID NO:3)). The PCR products were then separated and analyzed by agarose gel electrophoresis.

O=C(O[C@@H]1Cc2c(O)cc(O)cc2O[C@@H]1c1cc(O)c(O)c(O)c1)c1cc(O)c(O)c(O)c1 [EGCG, (−)-epigallocatechin-3-gallate] was tested, and the “colony formation in α9-nAChR (Si) cells compared with (Sc) cells” value (MCF-7 cells) was “profoundly inhibited”, the “formation of transformed colonies compared with Nic-treated cells” value (MCF-7 cells; MCF-7) was “significantly inhibits” and the “pAKT protein expression induced by either E2 or Nic” value (p-AKT (Ser^473)) was “significantly inhibited”. For the same compound, the “α9-nAChR mRNA in Nic-treated cells” value (α9-nAChR mRNA; EGCG 1 μM with Nic 10 μM, RT-PCR) was “downregulated”, the “Nic- or E2-induced α9-nAChR mRNA upregulation (real-time PCR)” value (α9-nAChR mRNA; EGCG 10 μM, Nic 10 μM or E2 10 nM) was “completely attenuated” and the “Nic- and E2-induced α9-nAChR promoter luciferase activity” value (α9-nAChR promoter) was “significantly reduces”. The “Nic-induced AP-1 binding to the α9-nAChR promoter” value (AP-1) was “attenuated”.
